“Also recorded” adds a separate entry of the source.
Assays:
[1] = system: IgE; experiment: Serum IgE level by ELISA, Balb/c; assay type: in vivo, mouse; settings: atopy-induced Balb/c mice
Protocol: After treatment with the test substance, the mice were sacrificed and blood was taken from the heart. After isolating serum from the blood, IgE level was measured. Specifically, after attaching antibodies diluted in a buffer solution onto a 96-well plate and incubating overnight at 4° C., experiment was conducted using an IgE ELISA kit (BD Biosciences, San Diego, CA) according to the provided manual. The quantity of the IgE protein was determined by measuring absorbance at 450 nm using a microplate reader.

[2] = system: pruritus caused by atopic contact dermatitis; experiment: Pruritus inhibition test, pruritus induced with DNFB; assay type: in vivo, mouse; settings: 0.1% in physiological saline applied once onto right ear; pruritus measured for 1 hour
Protocol: In order to investigate whether L-form, LID-form and D-form N-acetylalanine, N-acetylarginine, N-acetylthreonine and N-acetyltryptophan inhibit pruritus caused by atopic contact dermatitis, 20 μL of 0.1% 2,4-dinitrofluorobenzene (DNFB) solution and 0.1% N-acetylamino acid dissolved in physiological saline were applied once onto the right ear 10 minutes after the final treatment (day 27) with 2,4-dinitrofluorobenzene (DNFB) (Physiological saline was applied to a negative control group), and then pruritus was measured for 1 hour. FIG. 7 compares the pruritus-relieving effect of L-form N-acetylalanine, N-acetylthreonine, N-acetylarginine and N-acetyltryptophan with D/L-form and D-form N-acetylalanine and N-acetyltryptophan at 0.1% after the induction of pruritus with DNFB.

[3] = system: IL4; experiment: IL4 mRNA in skin tissue by quantitative real-time PCR, Balb/c; assay type: in vivo, mouse; settings: atopy-induced Balb/c mice, normalized to β-actin
Protocol: (§1) After isolating total RNA from the atopy-induced skin tissue using 500 μL of Trizol (Life Technologies, USA) according to the manufacturer's protocol and synthesizing cDNA using the Superscript III reverse transcriptase (Life Technologies, USA), real-time PCR was conducted by reacting with the primers of IL4 and interferon γ to be analyzed. The real-time PCR was conducted on a StepOne Plus PCR cycler (Applied Biosystems) using SYBR Green (Applied Biosystems, Foster City, CA). The mRNA expression data were analyzed by the ΔΔCT method and were normalized to β-actin for gene detection. The primers necessary for the real-time PCR were purchased from Qiagen (USA). […] IL4 is known to induce TH2 response and interferon γ is known to induce TH1 response.

[4] = system: interferon γ; experiment: Interferon γ mRNA in skin tissue by quantitative real-time PCR, Balb/c; assay type: in vivo, mouse; settings: atopy-induced Balb/c mice, normalized to β-actin
Protocol: as §1

[5] = system: atopic dermatitis-induced Balb/c mouse; experiment: SCORAD clinical skin score, DNFB-induced atopic dermatitis in Balb/c mouse; assay type: in vivo; set-up: key to Mouse 1 Sum / Mean (of Sum, SCORAD) / Mouse 2 Sum / Mouse 3 Sum: sum of symptom grades, each 0 (none) to 3 (severe); settings: for skin-soothing and atopic dermatitis-treating effect (SCORAD, Table 1, FIG. 2A): Balb/c atopic dermatitis model, 0.1% topical, P<0.05 versus DNFB group; for apparent degree of dermatitis (back skin images, FIG. 2B): Balb/c, treated for 7 days, day 29; for Mouse 1 Erythema / Mouse 1 Abrasion / Mouse 1 Dryness / Mouse 1 Edema / Mouse 1 Eschar / Mouse 1 Lichenification / Mouse 1 Sum / Mouse 2 Abrasion / Mouse 2 Dryness / Mouse 2 Edema / Mouse 2 Erythema / Mouse 2 Eschar / Mouse 2 Lichenification / Mouse 2 Sum / Mouse 3 Abrasion / Mouse 3 Dryness / Mouse 3 Edema / Mouse 3 Erythema / Mouse 3 Eschar / Mouse 3 Lichenification / Mouse 3 Sum / Mean (of Sum, SCORAD): DNFB Balb/c; for Mouse 1 Erythema: 0.1% in PBS, 200 μL on back skin daily day 22-28, grade 0-3 (0 no symptom, 1 mild, 2 moderate, 3 severe); for Mouse 1 Abrasion / Mouse 1 Dryness / Mouse 1 Edema / Mouse 1 Eschar / Mouse 1 Lichenification / Mouse 1 Sum / Mouse 2 Abrasion / Mouse 2 Dryness / Mouse 2 Edema / Mouse 2 Erythema / Mouse 2 Eschar / Mouse 2 Lichenification / Mouse 2 Sum / Mouse 3 Abrasion / Mouse 3 Dryness / Mouse 3 Edema / Mouse 3 Erythema / Mouse 3 Eschar / Mouse 3 Lichenification / Mouse 3 Sum / Mean (of Sum, SCORAD): 0.1% topical day 22-28; for Mouse 1 Abrasion / Mouse 1 Dryness / Mouse 1 Edema / Mouse 1 Eschar / Mouse 1 Lichenification / Mouse 2 Abrasion / Mouse 2 Dryness / Mouse 2 Edema / Mouse 2 Erythema / Mouse 2 Eschar / Mouse 2 Lichenification / Mouse 3 Abrasion / Mouse 3 Dryness / Mouse 3 Edema / Mouse 3 Erythema / Mouse 3 Eschar / Mouse 3 Lichenification: grade 0-3; for Mouse 1 Sum / Mouse 2 Sum / Mouse 3 Sum: overall dermatitis score, sum of individual scores; for Mean (of Sum, SCORAD): mean of 3 mice
Protocol: In order to induce atopy-like dermatitis in Balb/c mice, DNFB sensitization was induced by applying 100 μL of 0.35% 2,4-dinitrofluorobenzene (DNFB) (Sigma, USA) in acetone/olive oil (3:1) on the shaved back skin of the mice. Then, dermatitis was induced by applying 100 μL of 0.25% DNFB on days 6, 9, 12, 15, 18 21, 24 and 27 on the shaved back skin. Control mice were treated with a vehicle of the same volume (FIG. 1A).
After dissolving an N-acetyl or N-acylamino acid in phosphate-buffered saline to 0.1%, 200 μL of the solution was applied on the back skin of the mice every day, from day 22 until day 28 for the Balb/c atopic dermatitis model, and from day 15 until day 21 for the Nc/Nga atopic dermatitis model. When the N-acetyl or N-acylamino acid was treated together with DNFB, they were treated with 12-hour intervals in order to avoid direct reaction between the DNFB and the N-acetyl or N-acylamino acid. A non-treated group and a 2,4-dinitrofluorobenzene (DNFB) group were treated with phosphate-buffered saline of the same volume (FIGS. 1A-1B). As the N-acetylamino acid, products purchased from Sigma-Aldrich (USA), MP scientific (USA), TCI (Tokyo Chemical Industry, Japan), Santacruz (USA), etc. were used without purification.
The degree of skin soothing and the severity of atopic dermatitis were evaluated macroscopically according to the previously established SCORAD (SCORing Atopic Dermatitis) method (Oranje et al., 2007). The degree of symptoms such as edema, erythema, eschar, dryness, abrasion, lichenification, etc. was graded from 0 to 3 (0, no symptom; 1, mild; 2, moderate; 3, severe). The overall dermatitis score was determined from the sum of all individual scores (Table 1). The assessment was performed by an investigator who was blind to the grouping of the mice.

| Structure (SMILES) | serum IgE level (FIG. 4A) [1] | level of IL4 in the skin tissue (FIG. 5A) [3] | level of interferon γ in the skin tissue (FIG. 5A) [4] | skin-soothing and atopic dermatitis-treating effect (SCORAD, Table 1, FIG. 2A) [5] | apparent degree of dermatitis (back skin images, FIG. 2B) [5] | Mouse 1 Erythema [5] | Mouse 1 Abrasion [5] | Mouse 1 Dryness [5] | Mouse 1 Edema [5] | Mouse 1 Eschar [5] | Mouse 1 Lichenification [5] | Mouse 1 Sum [5] | Mouse 2 Abrasion [5] | Mouse 2 Dryness [5] | Mouse 2 Edema [5] | Mouse 2 Erythema [5] | Mouse 2 Eschar [5] | Mouse 2 Lichenification [5] | Mouse 2 Sum [5] | Mouse 3 Abrasion [5] | further results |
| --- | --- | --- | --- | --- | --- | --- | --- | --- | --- | --- | --- | --- | --- | --- | --- | --- | --- | --- | --- | --- | --- |
| CC(=O)N[C@@H](CCCNC(=N)N)C(=O)O [N-acetyl-L-arginine] | significant decrease | significantly decreased | significantly decreased | significant skin-soothing and atopic dermatitis-treating effects; also recorded: significant atopic dermatitis-treating effect | decreased remarkably | 1 | 1 | 1 | 1 | 1 | 1 | 6 | 1 | 1 | 1 | 1 | 1 | 1 | 6 | 0 | pruritus-relieving effect (FIG. 7) [2]: significantly inhibited pruritus; Mouse 3 Dryness [5]: 1; Mouse 3 Edema [5]: 1; Mouse 3 Erythema [5]: 1; Mouse 3 Eschar [5]: 1; Mouse 3 Lichenification [5]: 1; Mouse 3 Sum [5]: 5; Mean (of Sum, SCORAD) [5]: 5.67 |
| CC(=O)N[C@@H](CS)C(=O)O [N-acetyl-L-cysteine, reference compound] | significant decrease | significantly decreased | significantly decreased | significant skin-soothing and atopic dermatitis-treating effects; also recorded: significant atopic dermatitis-treating effect | decreased remarkably | 2 | 2 | 2 | 2 | 2 | 3 | 13 | 2 | 3 | 1 | 2 | 2 | 3 | 13 | 2 | Mouse 3 Dryness [5]: 2; Mouse 3 Edema [5]: 2; Mouse 3 Erythema [5]: 1; Mouse 3 Eschar [5]: 2; Mouse 3 Lichenification [5]: 2; Mouse 3 Sum [5]: 11; Mean (of Sum, SCORAD) [5]: 12.33 |
| CC(=O)N[C@H](C(=O)O)[C@@H](C)O [N-acetyl-L-threonine] | significant decrease | significantly decreased | significantly decreased | significant skin-soothing and atopic dermatitis-treating effects; also recorded: significant atopic dermatitis-treating effect | decreased remarkably | 1 | 1 | 2 | 1 | 1 | 1 | 7 | 1 | 0 | 1 | 1 | 1 | 1 | 5 | 0 | pruritus-relieving effect (FIG. 7) [2]: significantly inhibited pruritus; Mouse 3 Dryness [5]: 1; Mouse 3 Edema [5]: 1; Mouse 3 Erythema [5]: 1; Mouse 3 Eschar [5]: 2; Mouse 3 Lichenification [5]: 1; Mouse 3 Sum [5]: 6; Mean (of Sum, SCORAD) [5]: 6 |
